Reference: article PMC7717600, “Novel [(N-alkyl-3-indolylmethylene)hydrazono]oxindoles arrest cell cycle and induce cell apoptosis by inhibiting CDK2 and Bcl-2: synthesis, biological evaluation and in silico studies” (Journal of Enzyme Inhibition and Medicinal Chemistry, 2020)
Read-outs that look alike come from different tables or passages of the source.

How the values were obtained:
[1] = system: NCI-H322M; test: NCI SRB screening
[2] = system: M14; test: NCI SRB screening; assay type: cell-based
[3] = system: HCC-2998; test: NCI SRB screening; assay type: cell-based, human
[4] = system: RPMI-8226; details: for TGI: RPMI-8226
[5] = system: K-562; details: for TGI: K-562
[6] = system: OVCAR-8; details: for TGI: OVCAR-8
[7] = system: CCRF-CEM
[8] = system: NCI/ADR-RES
[9] = system: MCF7; details: for TGI: MCF7
[10] = system: NCI-H460; test: NCI SRB screening; assay type: cell-based, human
[11] = system: OVCAR-4
[12] = system: SF-295; details: for TGI: SF-295
[13] = system: SNB-19; details: for TGI: SNB-19
[14] = system: COLO 205; test: NCI SRB screening; assay type: cell-based, human
[15] = system: SR
[16] = system: HS 578T
[17] = system: ACHN
[18] = system: SN12C
[19] = system: SF-268; details: for TGI: SF-268
[20] = system: HCT-116; details: for TGI: HCT-116
[21] = system: UACC-62; details: for TGI: UACC-62
[22] = system: NCI-H226; details: for TGI: NCI-H226
[23] = system: PC-3; test: NCI SRB screening; assay type: cell-based, human
[24] = system: BT-549; details: BT-549

CCCn1cc(C=NN=C2C(=O)Nc3ccc(C)cc32)c2ccccc21 [Compound 8a]
TGI [1]: >100 µM
GI % ([1]; 10 μM): 53%
Growth Percent ([1]; 1.00E-5 Molar): 47.76%
GI50 ([1]; Homo sapiens): 3.42 µM
CC50 ([1]; Homo sapiens, read-out: LC50): > 100 µM
TGI ([1]; listed as D - 795311 / 1): > 1.00E-4 Molar
GI50 ([2]; Homo sapiens, M14): 1.92 µM
TGI ([2]; M14): 4.70 µM
GI % ([2]; M14, 10 μM): 44%
Growth Percent ([2]; M14, 1.00E-5 Molar): 56.29%
TGI ([2]; M14, listed as D - 795311 / 1): 4.70E-6 Molar
TGI ([3]; HCC-2998): 5.14 µM
GI % ([3]; HCC-2998, 10 μM): 53%
Growth Percent ([3]; HCC-2998, 1.00E-5 Molar): 46.95%
TGI ([3]; HCC-2998, listed as D - 795311 / 1): 5.14E-6 Molar
GI50 ([3]; Homo sapiens, HCC-2998): 2.09 µM
TGI [4]: 3.96 µM
GI % ([4]; RPMI-8226, 10 μM): 125%
Growth Percent ([4]; RPMI-8226, 1.00E-5 Molar): -24.86%
TGI ([4]; listed as D - 795311 / 1): 3.96E-6 Molar
TGI [5]: 20.5 µM
GI % ([5]; K-562, 10 μM): 83%
Growth Percent ([5]; K-562, 1.00E-5 Molar): 17.61%
TGI ([5]; listed as D - 795311 / 1): 2.05E-5 Molar
TGI [6]: >100 µM
GI % ([6]; OVCAR-8, 10 μM): 53%
Growth Percent ([6]; OVCAR-8, 1.00E-5 Molar): 47.49%
TGI ([6]; listed as D - 795311 / 1): > 1.00E-4 Molar
TGI [7]: >100 µM
GI % ([7]; 10 μM): 101%
Growth Percent ([7]; 1.00E-5 Molar): -0.65%
TGI ([7]; listed as D - 795311 / 1): > 1.00E-4 Molar
TGI [8]: 89.90 µM
GI % ([8]; 10 μM): 24%
Growth Percent ([8]; 1.00E-5 Molar): 76.32%
TGI ([8]; listed as D - 795311 / 1): 8.99E-5 Molar
TGI [9]: 15.50 µM
GI % ([9]; MCF7, 10 μM): 91%
Growth Percent ([9]; MCF7, 1.00E-5 Molar): 8.92%
TGI ([9]; listed as D - 795311 / 1): 1.55E-5 Molar
GI50 ([10]; Homo sapiens, NCI-H460): 2.17 µM
TGI ([10]; NCI-H460): 10.6 µM
GI % ([10]; NCI-H460, 10 μM): 68%
Growth Percent ([10]; NCI-H460, 1.00E-5 Molar): 32.08%
TGI ([10]; NCI-H460, listed as D - 795311 / 1): 1.06E-5 Molar
GI50 ([11]; OVCAR-4): 0.93 µM
TGI ([11]; OVCAR-4): 25.60 µM
GI % ([11]; OVCAR-4, 10 μM): 58%
Growth Percent ([11]; OVCAR-4, 1.00E-5 Molar): 41.83%
TGI ([11]; OVCAR-4, listed as D - 795311 / 1): 2.56E-5 Molar
TGI [12]: 96.6 µM
GI % ([12]; SF-295, 10 μM): 29%
Growth Percent ([12]; SF-295, 1.00E-5 Molar): 71.12%
TGI ([12]; listed as D - 795311 / 1): 9.66E-5 Molar
TGI [13]: >100 µM
GI % ([13]; SNB-19, 10 μM): 37%
Growth Percent ([13]; SNB-19, 1.00E-5 Molar): 63.34%
TGI ([13]; listed as D - 795311 / 1): > 1.00E-4 Molar
TGI ([14]; COLO 205): 3.06 µM
GI % ([14]; COLO 205, 10 μM): 116%
Growth Percent ([14]; COLO 205, 1.00E-5 Molar): -16.20%
TGI ([14]; COLO 205, listed as D - 795311 / 1): 3.06E-6 Molar
GI50 ([14]; Homo sapiens, COLO 205): 1.25 µM
GI50 [15]: 0.52 µM
TGI [15]: 8.72 µM
GI % ([15]; 10 μM): 89%
Growth Percent ([15]; 1.00E-5 Molar): 11.60%
TGI ([15]; listed as D - 795311 / 1): 8.72E-6 Molar
TGI [16]: >100 µM
GI % ([16]; 10 μM): 26%
Growth Percent ([16]; 1.00E-5 Molar): 74.02%
TGI ([16]; listed as D - 795311 / 1): > 1.00E-4 Molar
TGI [17]: >100 µM
GI % ([17]; 10 μM): 45%
Growth Percent ([17]; 1.00E-5 Molar): 55.74%
TGI ([17]; listed as D - 795311 / 1): > 1.00E-4 Molar
TGI [18]: 75.90 µM
GI % ([18]; 10 μM): 51%
Growth Percent ([18]; 1.00E-5 Molar): 49.93%
TGI ([18]; listed as D - 795311 / 1): 7.59E-5 Molar
TGI [19]: 28.0 µM
GI % ([19]; SF-268, 10 μM): 54%
Growth Percent ([19]; SF-268, 1.00E-5 Molar): 46.59%
TGI ([19]; listed as D - 795311 / 1): 2.80E-5 Molar
TGI [20]: 4.17 µM
GI % ([20]; HCT-116, 10 μM): 60%
Growth Percent ([20]; HCT-116, 1.00E-5 Molar): 39.85%
TGI ([20]; listed as D - 795311 / 1): 4.17E-6 Molar
CC50 ([20]; human, 48 h): 9.96 µM
TGI [21]: 12.10 µM
GI % ([21]; UACC-62, 10 μM): 60%
Growth Percent ([21]; UACC-62, 1.00E-5 Molar): 40.39%
TGI ([21]; listed as D - 795311 / 1): 1.21E-5 Molar
TGI [22]: 20.6 µM
Growth Percent ([22]; NCI-H226, 1.00E-5 Molar): 92.04%
TGI ([22]; listed as D - 795311 / 1): 2.06E-5 Molar
GI50 ([23]; Homo sapiens, PC-3): 1.83 µM
TGI ([23]; PC-3): 5.17 µM
GI % ([23]; PC-3, 10 μM): 82%
Growth Percent ([23]; PC-3, 1.00E-5 Molar): 17.96%
TGI ([23]; PC-3, listed as D - 795311 / 1): 5.17E-6 Molar
TGI [24]: 6.33 µM
